Source: the supplement of paper PMC10307832

Tests used:
Assay in all cases: relative viability (nuclei count vs DMSO), 5 days (fraction); higher = more cells survive
Neratinib + Tozasertib = compound: CCOc1cc2ncc(C#N)c(Nc3ccc(OCc4ccccn4)c(Cl)c3)c2cc1NC(=O)/C=C/CN(C)C [Neratinib] + Cc1cc(Nc2cc(N3CCN(C)CC3)nc(Sc3ccc(NC(=O)C4CC4)cc3)n2)n[nH]1 [Tozasertib] (partner 0.1 µM)
Method in brief: (§1)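 After 5 days of treatment, lung cancer cells in 1536-well plates were fixed and stained in a single step (final 0.05% Triton X-100, 1% formaldehyde, 1 ug/ml Hoechst) and their nuclei counted on 4× images. Treatment had been applied by pin tool the day after seeding as one drug alone or as a fixed anchor-drug dose with five library-drug doses (not always all listed) in √10 steps. Relative viability is the nuclei count of treated wells divided by that of vehicle wells, and values are medians of duplicate plates.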

Neratinib + Bortezomib = compound: CCOc1cc2ncc(C#N)c(Nc3ccc(OCc4ccccn4)c(Cl)c3)c2cc1NC(=O)/C=C/CN(C)C [Neratinib] + CC(C)C[C@H](NC(=O)[C@H](Cc1ccccc1)NC(=O)c1cnccn1)B(O)O [Bortezomib] (partner 0.002 µM)
Method in brief: as §1

Neratinib + Decitabine = compound: CCOc1cc2ncc(C#N)c(Nc3ccc(OCc4ccccn4)c(Cl)c3)c2cc1NC(=O)/C=C/CN(C)C [Neratinib] + Nc1ncn([C@H]2C[C@H](O)[C@@H](CO)O2)c(=O)n1 [Decitabine] (partner 2 µM)
Method in brief: as §1

Neratinib + AZD7762 = compound: CCOc1cc2ncc(C#N)c(Nc3ccc(OCc4ccccn4)c(Cl)c3)c2cc1NC(=O)/C=C/CN(C)C [Neratinib] + NC(=O)Nc1cc(-c2cccc(F)c2)sc1C(=O)N[C@H]1CCCNC1 [AZD7762] (partner 0.2 µM)
Method in brief: as §1

Row | Cell Line | relative viability (Neratinib + Tozasertib; first compound 0.01 µM) | relative viability (Neratinib + Tozasertib; first compound 0.03162 µM) | relative viability (Neratinib + Tozasertib; first compound 0.1 µM) | relative viability (Neratinib + Tozasertib; first compound 0.3162 µM) | relative viability (Neratinib + Tozasertib; first compound 1 µM) | relative viability (Neratinib + Bortezomib; first compound 0.01 µM) | relative viability (Neratinib + Bortezomib; first compound 0.03162 µM) | relative viability (Neratinib + Bortezomib; first compound 0.1 µM) | relative viability (Neratinib + Bortezomib; first compound 0.3162 µM) | relative viability (Neratinib + Bortezomib; first compound 1 µM) | relative viability (Neratinib + Decitabine; first compound 0.01 µM) | relative viability (Neratinib + Decitabine; first compound 0.03162 µM) | relative viability (Neratinib + Decitabine; first compound 0.1 µM) | relative viability (Neratinib + Decitabine; first compound 1 µM) | relative viability (Neratinib + AZD7762; first compound 0.01 µM) | relative viability (Neratinib + AZD7762; first compound 0.03162 µM) | relative viability (Neratinib + AZD7762; first compound 0.1 µM) | relative viability (Neratinib + AZD7762; first compound 0.3162 µM) | relative viability (Neratinib + AZD7762; first compound 1 µM) | relative viability (Neratinib + Decitabine; first compound 0.3162 µM)
1 | LCLC-97TM1 | 0.239 | 0.189 | 0.298 | 0.238 | 0.121 | 0.786 | 0.347 | 0.739 | 0.41 | 0.298 | 0.258 | 0.251 | 0.276 | 0.215 | 0.224 | 0.251 | 0.218 | 0.207 | 0.304 | 
2 | HARA | 0.106 | 0.104 | 0.0889 | 0.11 | 0.0872 | 1.26 | 1.15 | 0.97 | 0.974 | 0.79 | 0.573 | 0.493 | 0.414 | 0.476 | 0.563 | 0.293 | 0.263 |  | 0.261 | 
3 | HCC-78 | 0.584 | 0.373 | 0.401 | 0.379 | 0.238 | 0.478 | 0.446 | 0.432 | 0.43 | 0.301 | 0.816 |  | 0.651 | 0.649 | 0.797 | 0.602 | 0.541 | 0.424 | 0.415 | 0.691
4 | NCI-H1666 | 0.615 | 0.563 | 0.538 |  | 0.541 | 0.894 | 0.896 | 0.767 | 0.609 | 0.662 |  |  | 0.747 | 0.604 | 0.929 | 0.946 | 0.783 | 0.653 | 0.611 | 0.612
5 | NCI-H2405 | 0.808 | 0.852 | 0.712 | 0.72 | 0.547 | 1.05 | 1.09 | 0.708 | 0.998 | 0.954 | 0.799 | 0.74 | 0.769 | 0.669 | 0.818 | 0.799 | 0.751 | 0.635 | 0.446 | 0.675
6 | RERF-LC-KJ | 0.553 | 0.593 | 0.586 | 0.5 | 0.293 | 1.19 | 1.07 | 0.87 | 0.878 | 0.596 | 0.777 | 0.744 | 0.618 | 0.457 | 1.06 | 1.1 | 0.741 | 0.734 | 0.679 | 0.72
7 | NCI-H2085 | 0.729 | 0.909 | 0.716 | 0.675 | 0.458 | 1.05 |  | 0.869 | 1.06 | 0.76 | 0.595 | 0.547 | 0.542 | 0.516 | 0.924 | 1.04 | 0.933 | 0.746 |  | 0.485
